What was measured:
[1] = test system: intracellular ribonuclease in HEK 293 cells; experiment: Evaluation of harmfulness to cells using fluorescently labeled double-stranded RNA (intracellular RNA degradation, FRET fluorescence); settings: Mercury II Chrolide 100 ng/ml
From the text: That is, the present inventors designed and prepared a double-stranded RNA comprising an RNA strand labeled with a fluorescent dye A that emits fluorescence, and an RNA strand labeled with a fluorescent dye B that quenches emission from a fluorescent dye in the vicinity thereof. When the double-stranded RNA is in a double-stranded state, the fluorescence is in a quenched state due to occurrence of fluorescence resonance energy transfer (FRET) (Non-patent Document 4) between the two kinds of fluorescent dyes.
[…] After mixing, each reaction liquid was incubated at room temperature for 20 minutes, and then added to HEK 293 cells (2×10^5 cells/ml in 96 well plate), which are human cells. From Hour 0 to Hour 8, fluorescence was measured at 519 nm with excitation at 488 nm using a Microplate Reader SH-9000 (Corona Electric) at one-hour intervals. The experiment was carried out for n=3.
The result obtained by dividing the fluorescence values at Hours 1 to 8 by the fluorescence value at Hour 0 is shown in FIG. 5.
As reaction liquids, systems each containing 50 μL of Opti-MEM (Life Technologies), 1 μL of Lipofectamine 2000 (Life Technologies), 200 nM double-stranded RNA (the same RNA as in Example 1), and 0 ng/ml, 1 ng/ml, 100 ng/ml, or 100 μg/ml Cisplatin (Wako) were provided. […]

HEK 293 cells = settings: hydrogen peroxide 0.01, 1 or 100 μM, measured at Hour 2, 4, 6, 8, n=3
Procedure: The viable cell count was determined by the absorbance using a Cell Counting Kit-8 (Dojindo).
The cell systems at Hour 2, 4, 6, and 8 were subjected to measurement of the absorbance at 450 nm using a Cell Counting Kit-8 (Dojindo) and a Microplate Reader SH-9000 (Corona Electric) to determine the viable cell count. The experiment was carried out for n=3.

[2] = target: T1, Ribonuclease (DNase free) Solution (ribonuclease; RNase) (Bos taurus, UniProt P61823); settings: 100 μM hydrogen peroxide
T1 sequence (P61823 27-150): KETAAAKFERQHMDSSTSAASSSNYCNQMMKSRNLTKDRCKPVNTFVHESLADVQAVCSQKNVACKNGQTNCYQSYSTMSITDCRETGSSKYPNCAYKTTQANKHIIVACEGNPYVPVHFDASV
Procedure: In this experiment, how hydrogen peroxide influences the fluorescently labeled double-stranded RNA and a Ribonuclease (DNase free) Solution (ribonuclease; RNase) (Nippon Gene) was investigated.
A reaction liquid containing 200 nM double-stranded RNA in Opti-MEM (Life Technologies) (50 μL) was provided, and fluorescence was measured at 519 nm with excitation at 488 nm using a Microplate Reader SH-9000 (Corona Electric) (the result at Hour 0). Thereafter, systems in each of which hydrogen peroxide was added at 0 or 100 μM, and Ribonuclease (DNase free) Solution (ribonuclease; RNase) (Nippon Gene) was added at 0 or 0.4 mg/ml, were provided, and each system was incubated at room temperature for 1, 2, or 4 hours, followed by measurement of fluorescence at 519 nm with excitation at 488 nm using a Microplate Reader SH-9000 (the result at Hour 1, 2, or 4). The experiment was carried out for n=3.
The result obtained by dividing the fluorescence value at Hour 1, 2, or 4 by the fluorescence value at Hour 0 is shown in FIG. 4.

[3] = target: T1, Ribonuclease (DNase free) Solution (ribonuclease; RNase); experiment: Degradation of the fluorescently labeled double-stranded RNA (FRET probe) by ribonuclease, cell-free; type: biochemical; parameters: purchased Nippon Gene; settings: 200 nM double-stranded RNA in Opti-MEM, 0.4 mg/ml RNase, room temperature 1 hour, vs no RNase, n=3
From the text: First, FRET-Alexa-RNA: 5′-(Alexa Flour 488)-[…]-3′ (SEQ ID NO: 1) as a reporter strand, and FRET-BHQ1-RNA: (5′-[…]-(BHQ1)-3′ (SEQ ID NO:2) as a quencher strand were provided. The base at the 5′ end of the reporter strand is labeled with Alexa Flour 488 through a C6 linker, and the base at the 3′ end of the quencher strand is labeled with BHQ1 (Black Hole Quencher 1) without use of a linker (FIG. 2).
The reporter strand and the quencher strand were mixed at a ratio of 1:2 (molar ratio) in a solution of 50 mM HEPES, 500 mM KCl, and 25 mM MgCl2, and the resulting solution was incubated at 99° C. for 5 minutes, at 65° C. for 30 minutes, and then at 25° C. for 30 minutes to prepare a double-stranded RNA.
The experiment was carried out for n=3.

[Cl][Hg][Cl] [Mercury II Chrolide]
concentration dependence of the suppression of the fluorescence increase ([1]; 10 μg/ml or 1 mg/ml): dependent on the Mercury II Chrolide concentration | increase in the fluorescence value with time (Hours 1 to 8 divided by Hour 0) ([1]; 10 μg/ml or 1 mg/ml vs 0 ng/ml, Hour 0 to 8, n=3): suppressed

OO [hydrogen peroxide]
time at which a decrease in the absorbance (relative to 0 μM taken as 1) was first found (HEK 293 cells): 8 h | fluorescence value (Hour 1, 2 or 4 divided by Hour 0) of system with RNase, compared with RNase system ([2]; 200 nM double-stranded RNA, 0.4 mg/ml RNase, room temperature, n=3): almost the same | fluorescence value (Hour 1, 2 or 4 divided by Hour 0) of system without RNase, vs system with neither RNase nor hydrogen peroxide ([2]; 200 nM double-stranded RNA, no RNase, room temperature, n=3): almost the same | influence on fluorescence value of the RNA FRET Probe and on RNase activity (cell-free) ([2]; cell-free, 1-4 hours): influences neither the fluorescence value of the RNA FRET Probe nor the RNase activity

fluorescently labeled double-stranded RNA: Double-stranded RNA of FRET-Alexa-RNA reporter strand (SEQ ID NO: 1, Alexa Flour 488) and FRET-BHQ1-RNA quencher strand (SEQ ID NO: 2) (sense CAUAAUCCACCUCCCACUAUUCC; antisense GGAAUAGUGGGAGGUGGAUUAUG; RNA, backbone not given here; Alexa Fluor 488 on reporter, BHQ1 on quencher)
fluorescence intensity (fluorescence value at Hour 1 divided by value at Hour 0) on addition of RNase [3]: obviously increased
